The NIST ThermoML archive (doi:10.1021/je3003404)

Assay: mn = molality of the nth substance listed, in mol/kg
Conditions: 101 kPa, Liquid; for viscosity: Capillary tube (Ostwald / Ubbelohde) method; for electrical conductivity: Dip type conductivity cell; for mass density: Pycnometric method; for speed of sound: Sing-around technique in a fixed-path interferometer

CCCCCCCCCCCCCCCC[N+](C)(C)CC.[Br-] [ethylhexadecyldimethylammonium bromide] + O
Conditions | electrical conductivity [S/m] | mass density [kg/m3] | speed of sound [m/s] | viscosity [mPa·s]
298.15 K, m1 = 0.0002 | 0.0027 | 996.43 | 1498.5 | 0.8803
298.15 K, m1 = 0.0005 | 0.00707 | 996.47 | 1499.3 | 0.8841
298.15 K, m1 = 0.0008 | 0.0105 | 996.51 | 1500 | 0.887
298.15 K, m1 = 0.0012 | 0.0119 | 996.54 | 1500.3 | 0.8904
298.15 K, m1 = 0.0016 | 0.0127 | 996.56 | 1500.1 | 0.8929
298.15 K, m1 = 0.002 | 0.0138 | 996.58 | 1499.9 | 0.8952
298.15 K, m1 = 0.0025 | 0.0152 | 996.6 | 1499.9 | 0.8979
298.15 K, m1 = 0.003 | 0.0161 | 996.62 | 1499.7 | 0.9007
303.15 K, m1 = 0.0002 | 0.00301 | 994.49 | 1510.3 | 0.7889
303.15 K, m1 = 0.0005 | 0.00808 | 994.52 | 1511 | 0.792
303.15 K, m1 = 0.0008 | 0.0127 | 994.56 | 1511.8 | 0.7945
303.15 K, m1 = 0.0012 | 0.0144 | 994.59 | 1512.3 | 0.7978
303.15 K, m1 = 0.0016 | 0.0153 | 994.61 | 1512.2 | 0.8001
303.15 K, m1 = 0.002 | 0.0167 | 994.62 | 1512 | 0.8021
303.15 K, m1 = 0.0025 | 0.0178 | 994.64 | 1511.8 | 0.8047
303.15 K, m1 = 0.003 | 0.0194 | 994.66 | 1511.6 | 0.807
308.15 K, m1 = 0.0002 | 0.00338 | 992.55 | 1518.6 | 0.7097
308.15 K, m1 = 0.0005 | 0.00879 | 992.58 | 1519.2 | 0.7125
308.15 K, m1 = 0.0008 | 0.014 | 992.61 | 1519.9 | 0.7157
308.15 K, m1 = 0.0012 | 0.0161 | 992.63 | 1520.4 | 0.719
308.15 K, m1 = 0.0016 | 0.017 | 992.65 | – | 0.7209
308.15 K, m1 = 0.002 | 0.0185 | 992.66 | – | 0.7228
308.15 K, m1 = 0.0025 | 0.0195 | 992.67 | – | 0.725
308.15 K, m1 = 0.003 | 0.0217 | 992.69 | – | 0.7271
